Source: US7122547B1, “Anthranilic acid amides and the use thereof as medicaments” (Schering AG, priority 1998, dated 2006)

Columns and labels:
VEGFR II (KDR) = VEGFR II (KDR) (Homo sapiens, UniProt P35968); test: Inhibition of KDR kinase activity (33P-ATP, poly-(Glu4Tyr) phosphocellulose filter assay); assay type: biochemical; conditions: 10 minutes at room temperature, KH = keine Hemmung = No inhibition
Experimental: (§1) • Stock solutions • Stock solution A: 3 mmol of ATP in water, pH 7.0 (−70° C.) • Stock solution B: g-0.33P-ATP 1 mCi/100 μl • Stock solution C: poly-(Glu4Tyr) 10 mg/ml in water Solution for Dilutions • Substrate solvent: 10 mmol of DTT, 10 mmol of manganese chloride, 100 mmol of magnesium chloride • Enzyme solution: 120 mmol of tris/HCl, pH 7.5, 10 μm of sodium vanadium oxide Sample Application 1
(§2) Inhibition of the KDR- and FLT-1 kinase activity in the presence of the compounds according to the invention
(§3) It is thoroughly mixed and incubated for 10 minutes at room temperature. Then, 10 μl of stop solution (250 mmol of EDTA, pH 7.0) is added, mixed, and 10 μl of the solution is transferred to a P 81 phosphocellulose filter. Then, it is washed several times in 0.01 M phosphoric acid. The filter paper is dried, coated with Meltilex and measured in a microbeta counter.

VEGFR I (FLT) = VEGFR I (FLT) (Homo sapiens, UniProt P17948); test: Inhibition of FLT-1 kinase activity (33P-ATP, poly-(Glu4Tyr) phosphocellulose filter assay); assay type: biochemical; conditions: 10 minutes at room temperature, KH = keine Hemmung = No inhibition
Experimental: as §1, §2, §3

Chain of VEGFR II (KDR) (P35968 20-1356, species assumed): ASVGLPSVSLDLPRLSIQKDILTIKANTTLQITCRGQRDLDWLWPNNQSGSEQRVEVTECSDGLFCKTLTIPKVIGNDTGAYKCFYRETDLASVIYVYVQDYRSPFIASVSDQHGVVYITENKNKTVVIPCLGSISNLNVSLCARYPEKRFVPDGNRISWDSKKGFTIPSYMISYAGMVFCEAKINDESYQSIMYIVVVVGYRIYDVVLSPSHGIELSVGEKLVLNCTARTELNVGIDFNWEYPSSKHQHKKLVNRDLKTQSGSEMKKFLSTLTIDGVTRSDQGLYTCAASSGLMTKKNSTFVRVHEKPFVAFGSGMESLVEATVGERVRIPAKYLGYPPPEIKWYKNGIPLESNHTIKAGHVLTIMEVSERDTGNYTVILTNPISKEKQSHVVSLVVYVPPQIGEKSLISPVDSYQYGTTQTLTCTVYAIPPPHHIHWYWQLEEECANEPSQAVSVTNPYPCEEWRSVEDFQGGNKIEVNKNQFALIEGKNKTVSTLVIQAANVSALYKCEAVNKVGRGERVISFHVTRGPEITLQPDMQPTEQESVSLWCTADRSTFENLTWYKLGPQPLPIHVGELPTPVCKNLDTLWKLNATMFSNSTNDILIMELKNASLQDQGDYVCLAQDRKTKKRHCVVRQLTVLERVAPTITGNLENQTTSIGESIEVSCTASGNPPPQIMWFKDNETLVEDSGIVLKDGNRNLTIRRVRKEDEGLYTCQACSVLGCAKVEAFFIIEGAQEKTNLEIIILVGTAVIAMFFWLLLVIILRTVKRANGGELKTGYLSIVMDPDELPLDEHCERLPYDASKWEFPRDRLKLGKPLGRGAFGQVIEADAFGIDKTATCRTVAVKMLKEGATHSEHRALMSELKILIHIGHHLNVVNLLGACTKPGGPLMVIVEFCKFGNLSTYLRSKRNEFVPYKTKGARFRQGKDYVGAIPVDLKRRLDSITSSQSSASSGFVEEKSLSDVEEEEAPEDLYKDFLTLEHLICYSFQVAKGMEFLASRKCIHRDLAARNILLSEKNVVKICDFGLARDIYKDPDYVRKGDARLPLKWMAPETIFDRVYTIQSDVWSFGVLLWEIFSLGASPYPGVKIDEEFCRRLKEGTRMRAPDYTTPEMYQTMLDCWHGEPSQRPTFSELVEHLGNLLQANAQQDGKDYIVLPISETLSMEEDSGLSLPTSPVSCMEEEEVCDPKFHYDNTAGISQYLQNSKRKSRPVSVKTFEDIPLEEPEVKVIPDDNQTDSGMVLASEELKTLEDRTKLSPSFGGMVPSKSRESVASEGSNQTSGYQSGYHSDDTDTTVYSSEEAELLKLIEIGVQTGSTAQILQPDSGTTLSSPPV
Chain of VEGFR I (FLT) (P17948 27-1338, species assumed): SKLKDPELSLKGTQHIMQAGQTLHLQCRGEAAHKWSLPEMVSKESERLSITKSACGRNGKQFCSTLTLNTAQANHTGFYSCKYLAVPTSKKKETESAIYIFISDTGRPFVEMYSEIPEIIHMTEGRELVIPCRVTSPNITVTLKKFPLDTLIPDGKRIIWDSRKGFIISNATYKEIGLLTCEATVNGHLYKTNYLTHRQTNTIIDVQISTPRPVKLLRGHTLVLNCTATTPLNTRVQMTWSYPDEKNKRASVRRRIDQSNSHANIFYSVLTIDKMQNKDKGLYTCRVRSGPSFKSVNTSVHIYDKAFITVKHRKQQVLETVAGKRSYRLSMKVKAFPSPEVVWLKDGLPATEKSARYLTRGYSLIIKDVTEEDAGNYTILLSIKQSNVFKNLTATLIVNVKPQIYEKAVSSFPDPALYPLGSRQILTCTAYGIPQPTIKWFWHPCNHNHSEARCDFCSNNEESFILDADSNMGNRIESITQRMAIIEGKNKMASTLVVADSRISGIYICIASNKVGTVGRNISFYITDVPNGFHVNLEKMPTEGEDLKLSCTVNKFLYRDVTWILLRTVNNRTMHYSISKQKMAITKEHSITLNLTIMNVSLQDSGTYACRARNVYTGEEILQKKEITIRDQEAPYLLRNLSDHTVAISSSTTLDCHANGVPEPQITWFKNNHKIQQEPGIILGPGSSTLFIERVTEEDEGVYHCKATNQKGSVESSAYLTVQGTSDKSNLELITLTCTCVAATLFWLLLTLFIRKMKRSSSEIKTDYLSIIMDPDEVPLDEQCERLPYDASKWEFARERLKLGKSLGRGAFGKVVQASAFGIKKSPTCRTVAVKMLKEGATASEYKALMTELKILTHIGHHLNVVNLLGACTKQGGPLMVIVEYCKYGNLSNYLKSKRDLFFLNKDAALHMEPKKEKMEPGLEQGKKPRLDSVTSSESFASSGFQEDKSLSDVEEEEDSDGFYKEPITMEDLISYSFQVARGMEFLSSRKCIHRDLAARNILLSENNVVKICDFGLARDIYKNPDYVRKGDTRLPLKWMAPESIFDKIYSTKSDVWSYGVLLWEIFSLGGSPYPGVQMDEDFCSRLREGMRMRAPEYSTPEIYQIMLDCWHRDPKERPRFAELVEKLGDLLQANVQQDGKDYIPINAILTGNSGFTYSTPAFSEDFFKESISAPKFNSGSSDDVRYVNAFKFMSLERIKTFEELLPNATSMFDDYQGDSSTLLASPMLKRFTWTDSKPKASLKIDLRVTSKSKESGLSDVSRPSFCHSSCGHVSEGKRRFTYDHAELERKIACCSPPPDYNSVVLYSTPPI

| SMILES | IC50 (VEGFR II (KDR)) | IC50 (VEGFR I (FLT)) |
| --- | --- | --- |
| CN(NC(=O)c1ccccc1NCc1ccncc1)c1ccccc1 [Example 2.5] | – | 1000 nM |
| O=C(NCc1cccs1)c1ccccc1NCc1ccncc1 [Example 2.6] | 2000 nM | 200 nM |
| O=C(NCCc1c[nH]c2cc(F)ccc12)c1ccccc1NCc1ccncc1 [Example 2.8] | 100 nM | 500 nM |
| COc1cc2c(cc1OC)CC(NC(=O)c1ccccc1NCc1ccncc1)CC2 (stereo not drawn) [Example 2.9] | – | 5000 nM |
| O=C(NCc1ccncc1)c1ccccc1NCc1ccncc1 [Example 2.10] | – | 3000 nM |
| CC(NC(=O)c1ccccc1NCc1ccncc1)c1cccc2ccccc12 (stereo not drawn) [Example 2.12] | 3000 nM | 700 nM |
| O=C(NC1CCCc2ccccc21)c1ccccc1NCc1ccncc1 (stereo not drawn) [Example 2.13] | 3000 nM | 700 nM |
| O=C(NCCCc1ccc(Cl)cc1)c1ccccc1NCc1ccncc1 [Example 2.14] | 300 nM | 500 nM |
| CC(NC(=O)c1ccccc1NCc1ccncc1)c1ccc(Cl)cc1 (stereo not drawn) [Example 2.15] | – | 1000 nM |
| CC(CNC(=O)c1ccccc1NCc1ccncc1)c1ccc(Cl)cc1 (stereo not drawn) [Example 2.16] | 200 nM | 100 nM |
| CC(Cc1ccc(Cl)cc1)NC(=O)c1ccccc1NCc1ccncc1 (stereo not drawn) [Example 2.17] | 500 nM | 400 nM |
| CC(CNC(=O)c1ccccc1NCc1ccncc1)c1ccccc1 (stereo not drawn) [Example 2.18] | 500 nM | 300 nM |
| CC(C)(NC(=O)c1ccccc1NCc1ccncc1)c1ccccc1 [Example 2.19] | > 10000 nM | > 10000 nM |
| O=C(NC1CCc2cc(Cl)ccc21)c1ccccc1NCc1ccncc1 (stereo not drawn) [Example 2.20] | – | 4000 nM |
| COc1ccc(CCNC(=O)c2ccccc2NCc2ccncc2)cc1OC [Example 2.21] | 300 nM | 2000 nM |
| O=C(N[C@@H]1CCCc2ccccc21)c1ccccc1NCc1ccncc1 [Example 2.24] | > 1000 nM | 500 nM |
| O=C(Nc1cccc2ncccc12)c1ccccc1NCc1ccncc1 [Example 2.26] | 200 nM | 200 nM |
| O=C(Nc1nccc2ccccc12)c1ccccc1NCc1ccncc1 [Example 2.31] | 270 nM | 100 nM |
| O=C(Nc1cc2ccccc2c(Nc2cc3ccccc3c(Br)n2)n1)c1ccccc1NCc1ccncc1 [Example 2.33] | 2000 nM | 1000 nM |
| O=C(Nc1cccc2cccnc12)c1ccccc1NCc1ccncc1 [Example 2.34] | 100 nM | 2000 nM |
| O=C(Nc1ccccn1)c1ccccc1NCc1ccncc1 [Example 2.37] | – | 200 nM |

| SMILES | IC50 (VEGFR II (KDR)) | IC50 (VEGFR I (FLT)) |
| --- | --- | --- |
| O=C(NCc1cccnc1)c1ccccc1NCc1ccncc1 [Example 2.38] | 200 nM | 7000 nM |
| O=C(Nc1cccnc1)c1ccccc1NCc1ccncc1 [Example 2.40] | – | 500 nM |
| O=C(Nc1nnc(C(F)(F)F)s1)c1ccccc1NCc1ccncc1 [Example 2.41] | 300 nM | 1000 nM |
| O=C(NCc1ccc(C(F)(F)F)cc1)c1ccccc1NCc1ccncc1 [Example 2.42] | 100 nM | 500 nM |
| O=C(NC1CCC(c2ccccc2)CC1)c1ccccc1NCc1ccncc1 (stereo not drawn) [Example 2.44] | 200 nM | 300 nM |
| O=C(N[C@H]1CCCc2ccccc21)c1ccccc1NCc1ccncc1 [Example 2.45] | – | 100 nM |
| O=C(NCc1ccc2ccccc2n1)c1ccccc1NCc1ccncc1 [Example 2.48] | 500 nM | 100 nM |
| O=C(Nc1cccc2cnccc12)c1ccccc1NCc1ccncc1 [Example 2.55] | 200 nM | 300 nM |
| O=C(Nc1cc2ccccc2cn1)c1cc(F)ccc1NCc1ccncc1 [Example 2.63] | 0.3 nM | – |
| COc1ccc(CNc2ccccc2C(=O)NCc2ccc(Cl)cc2)cc1 [Example 3.0, N-(4-chlorobenzyl)-N-2-(4-methoxybenzyl)anthranilamide] | 3000 nM | – |
| O=C(NCCc1ccc(Cl)cc1)c1ccccc1NCc1ccc(O)cc1 [Example 4.0, N-[2-(4-chlorophenyl)ethyl]-N-2-(4-hydroxybenzyl)anthranilamide] | 200 nM | 500 nM |
| O=C(Nc1nc2ccccc2[nH]1)c1ccccc1NCc1ccncc1 [Example 8.2] | 200 nM | 200 nM |
| O=C(Nc1nc2ccc(OC(F)(F)F)cc2s1)c1ccccc1NCc1ccncc1 [Example 8.9] | 500 nM | 500 nM |
| O=C(Nc1ccncc1)c1ccccc1NCc1ccncc1 [Example 8.11] | – | 200 nM |
| Cn1c(NC(=O)c2ccccc2NCc2ccncc2)nc2ccccc21 [Example 8.12] | 100 nM | 200 nM |
| O=C(Nc1nc2ccc(Cl)cc2s1)c1ccccc1NCc1ccncc1 [Example 8.13] | 500 nM | 500 nM |
| O=C(Nc1ccc2nc[nH]c2c1)c1ccccc1NCc1ccncc1 [Example 8.14] | 200 nM | 500 nM |
| O=C(Nc1ccc2[nH]nnc2c1)c1ccccc1NCc1ccncc1 [Example 8.15] | 200 nM | 200 nM |
| O=C(Nc1nc2ccc(F)cc2s1)c1ccccc1NCc1ccncc1 [Example 8.16] | 300 nM | 200 nM |
| O=C(Nc1nc2c(Cl)cccc2s1)c1ccccc1NCc1ccncc1 [Example 8.17] | 50 nM | – |

The next lines start with the values.

| IC50 (VEGFR II (KDR)) | IC50 (VEGFR I (FLT)) | SMILES |
| --- | --- | --- |
| 50 nM | 50 nM | O=C(NCCCc1ccccc1)c1ccccc1NCc1ccncc1 [Example 2.0, N-(3-phenylprop-1-yl)-N2-(4-pyridylmethyl)-anthranilic acid amide] |
| 300 nM | 10 nM | O=C(NCc1ccc(Cl)cc1)c1ccccc1NCc1ccncc1 [Example 2.1] |
| 500 nM | 100 nM | O=C(NC1Cc2ccccc2C1)c1ccccc1NCc1ccncc1 [Example 2.2] |
| 20 nM | 20 nM | O=C(NCCc1ccc(Cl)cc1)c1ccccc1NCc1ccncc1 [Example 2.3] |
| 100 nM | 20 nM | O=C(NNc1ccc(Cl)cc1)c1ccccc1NCc1ccncc1 [Example 2.4] |
| 200 nM | 20 nM | O=C(NCc1cccc2ccccc12)c1ccccc1NCc1ccncc1 [Example 2.11] |
| 670 nM | 20 nM | O=C(Nc1ccc2nsnc2c1)c1ccccc1NCc1ccncc1 [Example 2.23] |
| 20 nM | 20 nM | O=C(Nc1ncc(Cl)cn1)c1ccccc1NCc1ccncc1 [Example 2.32] |
| 20 nM | 98 nM | COc1ccc(CCNC(=O)c2ccccc2NCc2ccncc2)cc1 [Example 2.35] |
| 30 nM | 50 nM | O=C(Nc1ccc(Cl)cn1)c1ccccc1NCc1ccncc1 [Example 2.39] |
| 50 nM | 20 nM | O=C(Nc1cc(-c2ccccc2)[nH]n1)c1ccccc1NCc1ccncc1 [Example 2.43] |
| – | 20 nM | O=C(NCc1nccc2ccccc12)c1ccccc1NCc1ccncc1 [Example 2.47] |
| 50 nM | 80 nM | O=C(Nc1ccc2c(c1)NCCC2)c1ccccc1NCc1ccncc1 [Example 2.49] |
| – | 50 nM | O=C(Nc1ccc2ncccc2c1)c1ccccc1NCc1ccncc1 [Example 2.52] |
| 20 nM | 20 nM | O=C(Nc1ccc2ccccc2n1)c1ccccc1NCc1ccncc1 [Example 2.53] |
| 5 nM | 20 nM | O=C(Nc1cc2ccccc2cn1)c1ccccc1NCc1ccncc1 [Example 2.54] |
| 20 nM | 40 nM | O=C(Nc1ccc2[nH]ccc2c1)c1ccccc1NCc1ccncc1 [Example 2.56] |
| 40 nM | 40 nM | O=C(Nc1ccc2[nH]ncc2c1)c1ccccc1NCc1ccncc1 [Example 8.0, N-(indazol-5-yl) N2-(4-pyridylmethyl)-anthranilic acid amide] |
| 20 nM | 50 nM | O=C(Nc1ccc2ncsc2c1)c1ccccc1NCc1ccncc1 [Example 8.8] |
| 20 nM | 20 nM | O=C(Nc1ccc2cn[nH]c2c1)c1ccccc1NCc1ccncc1 [Example 8.10] |
